In patent publication US6262075A, “Piperidone tachykinin antagonists” (Pfizer Inc, priority 1996, dated 2001):

Biological target: T1, human NK2 receptor (Homo sapiens, UniProt P21452)
T1 construct: expressed in transfected cells; host or cells: Chinese hamster ovary cells (membranes)
T1 sequence (P21452 1-398): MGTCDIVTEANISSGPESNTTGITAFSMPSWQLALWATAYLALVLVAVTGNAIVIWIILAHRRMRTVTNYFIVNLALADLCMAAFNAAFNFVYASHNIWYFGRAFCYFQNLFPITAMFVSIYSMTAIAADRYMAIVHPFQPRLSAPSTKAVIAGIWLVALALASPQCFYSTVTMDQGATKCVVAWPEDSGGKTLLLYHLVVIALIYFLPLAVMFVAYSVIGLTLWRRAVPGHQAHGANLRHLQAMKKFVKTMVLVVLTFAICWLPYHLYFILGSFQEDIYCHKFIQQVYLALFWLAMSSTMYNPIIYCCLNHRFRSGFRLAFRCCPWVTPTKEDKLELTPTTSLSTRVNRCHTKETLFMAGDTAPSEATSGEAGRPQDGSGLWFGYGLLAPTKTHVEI
Assay: affinity for the human NK2 receptor, competition with [^3 H] NKA for binding to membranes prepared from Chinese hamster ovary cells
Conditions: membranes from Chinese hamster ovary cells expressing the cloned human NK2 receptor, negative logarithm of the molar affinity
Procedure: The affinity of the compounds of formula (I) and their salts for the human NK2 receptor can be tested in vitro by testing their ability to compete with [^3 H] or [^125 I]NKA (neurokinin A) for binding to membranes prepared from Chinese hamster ovary cells expressing the cloned human NK2 receptor. In this method, washed Chinese hamster ovary cell membranes are prepared as described for the previous method where IM9 cells are used instead. The membranes are incubated (90 min, 25° C.) with [^3 H] or [^125 I]NKA and with a range of concentrations of the test compound. Non-specific binding was determined in the presence of 10 μM NKA.
The affinity of a selection of the compounds of the preceding Examples for the human NK2 receptor was tested in vitro by testing their ability to compete with [^3 H] NKA for binding to membranes prepared from Chinese hamster ovary cells expressing the cloned human NK2 receptor using the method set out on page 26.
The "pKi" measurement is the negative logarithm of the molar affinity of the compound for the receptor as determined in radioligand binding assays using standard protocols.

Ki	Structure (SMILES)
0.631 nM	O=C1CC[C@](CCN2CC(N3CCC(F)CC3)C2)(c2ccc(Cl)c(Cl)c2)CN1CC1CCC(F)(F)CC1 [Example 1]
0.0501 nM	O=C1CCC(CCN2CC(N3CCC(F)CC3)C2)(c2ccc(Cl)c(Cl)c2)CN1C1CCCCC1 (stereo not shown) [Example 2]
0.1 nM	O=C1CCC(CCN2CC(N3CCC(F)CC3)C2)(c2ccc(Cl)c(Cl)c2)CN1C1(C2CC2)CCCC1 (stereo not shown) [Example 3]
2.51 nM	O=C1CCC(CCN2CC(N3CCC(F)CC3)C2)(c2ccc(Cl)c(Cl)c2)CN1CCC1CC1 (stereo not shown) [Example 4]
